SMILES strings stand for the structures.

Consider one molecule from patent US20040097408A1, “Compounds regulating cell proliferation and differentiation” (priority 2001, published 2004).

One assay relates to NF324-1B. Description: cell count proliferation assay. The assay is classed as cell-based, mouse. Set-up: key: +: A positive scoring in these Tables represent cells in which a 2-5 and a 10-40 fold reduction in the total number of cells relative to the control untreated cells was observed after 3 and 7 days of culture with F16, respectively. The following applies: Neu, breast, F16 3 μM, cells counted after 3 and 7 days. From the text:
(§1) The following panel of mouse tumor cell lines derived from Neu, Ras and Myc transgenic mice and panel of human cancer cell lines were used: a) Neu-initiated mouse tumor cell lines NF980, NF324-2A, NF324-1B, SMF, NAF, Neu4145, n-Neu, Ras-initiated mouse tumor cell lines SH1,1, AC236, AC711, AC816, ACp53^−#1, ACp53^−4782, AC222, AC99, AC260, ACp53^−#19, ACp53^−#16, AC/Balb6.6, AC/Balb14, AC/Balb12 and Myc-initiated mouse tumor cell lines 16MB9a, 13MA1a; and b) human breast tumor cell lines MDA-MB231, MDA-MB435, MDA-MB436, MDA-MB453, MDA-MB-468, SKBR-3, MCF-7, T47D, ZR75; human prostate cancer cell lines LNCaP, PC-3, DU145 and the human ovarian cancer cell line SKOV-3.
(§2) For each cell line, 10^5 cells were seeded in 4×6 well plates. Next day, F16 was added at 3 μM to the medium of 2 of the plates, while the other two were left untreated (control). Cells were counted 3 days and 7 days after initiation of treatment.
(§3) A positive scoring in these Tables represent cells in which a 2-5 and a 10-40 fold reduction in the total number of cells relative to the control untreated cells was observed after 3 and 7 days of culture with F16, respectively.

Another assay has as its system SMF. Description: cell count proliferation assay. On the set-up: key: +: A positive scoring in these Tables represent cells in which a 2-5 and a 10-40 fold reduction in the total number of cells relative to the control untreated cells was observed after 3 and 7 days of culture with F16, respectively. The following applies: Neu, breast, F16 3 μM, cells counted after 3 and 7 days. The assay is classed as cell-based, mouse.
Excerpt: as §1, §2, §3

For a further assay, the system named is n-Neu. Description: cell count proliferation assay. Format: cell-based, mouse. On the set-up: key: +: A positive scoring in these Tables represent cells in which a 2-5 and a 10-40 fold reduction in the total number of cells relative to the control untreated cells was observed after 3 and 7 days of culture with F16, respectively. The following applies: breast, F16 3 μM, cells counted after 3 and 7 days.
Excerpt: as §1, §2, §3

For another assay, the system named is AC816. Description: cell count proliferation assay. The assay is classed as cell-based, mouse. On the set-up: key: +: A positive scoring in these Tables represent cells in which a 2-5 and a 10-40 fold reduction in the total number of cells relative to the control untreated cells was observed after 3 and 7 days of culture with F16, respectively. As to conditions: AC816, Ras, breast; F16 3 μM, cells counted after 3 and 7 days.
Excerpt: as §1, §2, §3

In a further assay the test system is NAF. Description: cell count proliferation assay. On the set-up: key: +: A positive scoring in these Tables represent cells in which a 2-5 and a 10-40 fold reduction in the total number of cells relative to the control untreated cells was observed after 3 and 7 days of culture with F16, respectively. The following applies: Neu, breast, F16 3 μM, cells counted after 3 and 7 days. Format: cell-based, mouse.
Excerpt: as §1, §2, §3

The test system of a further assay is AC236. Description: cell count proliferation assay. The following applies: AC236, Ras, breast; F16 3 μM, cells counted after 3 and 7 days. On the set-up: key: +: A positive scoring in these Tables represent cells in which a 2-5 and a 10-40 fold reduction in the total number of cells relative to the control untreated cells was observed after 3 and 7 days of culture with F16, respectively. The assay is classed as cell-based, mouse.
Excerpt: as §1, §2, §3

The subject of the next assay is MDA-MB-436. Put plainly: cell count proliferation assay. Format: cell-based. On the set-up: key: +: A positive scoring in these Tables represent cells in which a 2-5 and a 10-40 fold reduction in the total number of cells relative to the control untreated cells was observed after 3 and 7 days of culture with F16, respectively. The following applies: MDA-MB-436, human breast; F16 3 μM, cells counted after 3 and 7 days.
Excerpt: as §1, §2, §3

The test system of a further assay is SKBR-3. Put plainly: cell count proliferation assay. The assay is classed as cell-based. Set-up: key: +: A positive scoring in these Tables represent cells in which a 2-5 and a 10-40 fold reduction in the total number of cells relative to the control untreated cells was observed after 3 and 7 days of culture with F16, respectively. The following applies: SKBR-3, human breast; F16 3 μM, cells counted after 3 and 7 days.
Excerpt: as §1, §2, §3

A further assay concerns MDA-MB-453. Put plainly: cell count proliferation assay. The assay is classed as cell-based. Set-up: key: +: A positive scoring in these Tables represent cells in which a 2-5 and a 10-40 fold reduction in the total number of cells relative to the control untreated cells was observed after 3 and 7 days of culture with F16, respectively. The following applies: MDA-MB-453, human breast; F16 3 μM, cells counted after 3 and 7 days.
Excerpt: as §1, §2, §3

In a further assay the test system is MCF-7. Put plainly: cell count proliferation assay. The assay is classed as cell-based. On the set-up: key: +: A positive scoring in these Tables represent cells in which a 2-5 and a 10-40 fold reduction in the total number of cells relative to the control untreated cells was observed after 3 and 7 days of culture with F16, respectively. The following applies: MCF-7, human breast; F16 3 μM, cells counted after 3 and 7 days.
Excerpt: as §1, §2, §3

The subject of a further assay is MDA-MB-468. Put plainly: cell count proliferation assay. The assay is classed as cell-based. Set-up: key: +: A positive scoring in these Tables represent cells in which a 2-5 and a 10-40 fold reduction in the total number of cells relative to the control untreated cells was observed after 3 and 7 days of culture with F16, respectively. As to conditions: MDA-MB-468, human breast; F16 3 μM, cells counted after 3 and 7 days.
Excerpt: as §1, §2, §3

In a further assay the test system is ZR75. Description: cell count proliferation assay. Format: cell-based. Set-up: key: +: A positive scoring in these Tables represent cells in which a 2-5 and a 10-40 fold reduction in the total number of cells relative to the control untreated cells was observed after 3 and 7 days of culture with F16, respectively. The following applies: ZR75, human breast; F16 3 μM, cells counted after 3 and 7 days.
Excerpt: as §1, §2, §3

Another assay deals with T47D. Put plainly: cell count proliferation assay. The assay is classed as cell-based. On the set-up: key: +: A positive scoring in these Tables represent cells in which a 2-5 and a 10-40 fold reduction in the total number of cells relative to the control untreated cells was observed after 3 and 7 days of culture with F16, respectively. The following applies: human breast, F16 3 μM, cells counted after 3 and 7 days.
Excerpt: as §1, §2, §3

Assay [1] deals with EpH4-EV and EpH4-A6 cells. Description: intracellular colocalization with Mitotracker Red / Lysotracker Red / Hoescht. Format: cell-based, mouse. As to conditions: 3 μM F16, 2 hours. The protocol:
2×10^4 EpH4-EV and EpH4-A6 cells were seeded in 6 well chamber slides. Next morning, cells were left untreated or treated with F16 at 3 μM for 2 hours. Cells were incubated with Hoescht stain for 30 minutes and then visualized under the microscope. Hoescht stain specifically stains the nuclei of cells. A mitochondrial specific stain, Mitotracker Red (Molecular Probes), was added to the medium to stain mitochondria, and Lysotracker Red to stain lysosomes and acidic compartments, according to manufacturer procedure. Hoescht stain was also included in the medium (together with the other stains). Cells were photographed under Axioskop (Zeiss) using a Spot Camera (Diagnostic Instruments).

On to `C[n+]1ccc(/C=C/c2c[nH]c3ccccc23)cc1.[I-]` [F16], for which the F16 response entry with NF324-1B, in the assay with SMF, in the assay with n-Neu, in the assay with AC816, with NAF and in the assay with AC236 was “+” each time. The F16 response result with MDA-MB-436, in the assay with SKBR-3, with MDA-MB-453, in the assay on MCF-7, in the assay on MDA-MB-468 and with ZR75 was “+” throughout. Further, the F16 response entry in the assay with T47D is listed as “+”. The “intracellular localization of F16 staining” value in [1] is “overlapped with the mitochondrial staining, but not with the lysosomal staining”.
